The source of these data is ChEMBL document CHEMBL1201862, “PubChem BioAssay data set” (2004).

Activity calls are given as the source filed them.

Assay [1] addresses T1, Mannose-6-phosphate isomerase (Homo sapiens, UniProt P34949).
T1 sequence (P34949 whole entry): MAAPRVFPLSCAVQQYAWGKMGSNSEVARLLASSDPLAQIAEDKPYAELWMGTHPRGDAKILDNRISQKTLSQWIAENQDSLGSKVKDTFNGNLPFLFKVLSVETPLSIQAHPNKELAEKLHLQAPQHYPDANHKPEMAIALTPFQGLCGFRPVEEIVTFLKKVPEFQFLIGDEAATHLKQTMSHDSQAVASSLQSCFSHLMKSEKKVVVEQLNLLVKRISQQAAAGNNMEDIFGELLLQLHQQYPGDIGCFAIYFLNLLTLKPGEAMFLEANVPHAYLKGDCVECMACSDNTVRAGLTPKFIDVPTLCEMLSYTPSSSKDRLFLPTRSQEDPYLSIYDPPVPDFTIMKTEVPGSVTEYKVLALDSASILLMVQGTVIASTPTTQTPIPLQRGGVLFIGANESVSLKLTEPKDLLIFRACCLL
Briefly: MPI enzyme activity inhibition – biochemical, fluorescence intensity, coupled assay, primary screen (AID 1209).

Assay [2] in a line: Trypanosoma cruzi growth suppression in host cells – NIH3T3 host cells, beta-gal luminescence, confirmation (AID 2044).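 Also: intracellular parasites grown in NIH/3T3 mouse fibroblasts as host cells; luminescent beta-galactosidase reporter signal from transgenic T. cruzi replicating inside host cells; inhibitors lower the luminescence signal.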 It is filed as functional, cell-based.
A short description of assay [3]: NIH3T3 cell viability loss – ATP luminescence, mouse fibroblasts, counter-screen, dose response (AID 2010).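 Also: cells exposed to compound for about 90 hours before reading.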 It is filed as functional, cell-based.
Assay [4] is described as follows: Luminescence Cell-Based Dose Retest to Confirm Inhibitors of Cancer Stem Cells. [Related pubchem assays (depositor defined):AID2717, AID2721]. Format: functional. To be noted: Homo sapiens.
A further assay deals with INS1. The assay can be described thus: INS-1E survival protection against cytokine death – cell-based, luminescence, retest, dose response (AID 449756).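 Also: cell death triggered by IL-1 beta plus TNF-alpha plus IFN-gamma mixture; protective hits raise ATP signal compared with cytokine alone wells.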 It is filed as functional. To be noted: Rattus norvegicus.
Another assay has as its target T2, Estrogen receptor (Homo sapiens, UniProt P03372).
T2 sequence (P03372 whole entry): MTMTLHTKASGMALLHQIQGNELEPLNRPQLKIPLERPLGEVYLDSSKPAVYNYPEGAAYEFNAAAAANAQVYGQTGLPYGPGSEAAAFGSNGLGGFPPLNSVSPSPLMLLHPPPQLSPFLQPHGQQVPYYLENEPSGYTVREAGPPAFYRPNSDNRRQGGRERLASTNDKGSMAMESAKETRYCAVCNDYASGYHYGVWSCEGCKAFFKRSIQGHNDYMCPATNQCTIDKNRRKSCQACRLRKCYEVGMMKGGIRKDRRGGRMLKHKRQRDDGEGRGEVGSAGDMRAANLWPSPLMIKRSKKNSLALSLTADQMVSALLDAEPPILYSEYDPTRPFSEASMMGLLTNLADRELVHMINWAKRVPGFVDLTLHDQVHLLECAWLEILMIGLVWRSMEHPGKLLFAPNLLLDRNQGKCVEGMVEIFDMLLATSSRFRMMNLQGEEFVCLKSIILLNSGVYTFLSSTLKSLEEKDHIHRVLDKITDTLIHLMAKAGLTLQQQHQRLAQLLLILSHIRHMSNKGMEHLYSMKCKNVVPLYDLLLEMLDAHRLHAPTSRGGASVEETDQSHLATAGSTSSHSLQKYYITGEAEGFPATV
The assay can be described thus: ERα coactivator recruitment enhancers – biochemical, TR-FRET, ERα LBD, dose response (AID 737).

Regarding `CC1=[N+](C)c2ccc3ccccc3c2C1(C)C`, the IC50 in assay [1] is > 50 µM (not active). For the same compound, the figures for the EC50 in assay [2] and in assay [3] were 2.83 µM (active) and > 60 µM (not active), respectively. For the same compound, the AC50 is 27.4 µM (active) in assay [4] and 6.8 µM (active) in the assay on INS1.
As to `Cc1nn(-c2ccc(Cl)cc2)c2sc(C(=O)N3CCN(c4ccccn4)CC3)cc12`, on Estrogen receptor, the EC50 is 12.8 µM (active).
